Data on seven compounds can be found in ChEMBL document CHEMBL3351747, “Structure-based design of β1i or β5i specific inhibitors of human immunoproteasomes” (J Med Chem, 2014).

pIC50: −log10 of the molar value. Bounds are passed on as bounds.

Assay [1] in a line: Inhibition of 20s proteasome subunit beta-2c in human Raji cells using BODIPY- epoxomicin by fluorescent densitometry. The assay is classed as cell-based.
Assay [2] can be described thus: Inhibition of 20s proteasome subunit beta-1c in human Raji cells using BODIPY- epoxomicin by fluorescent densitometry. The assay is classed as cell-based.
The target of assay [3] is T1, Proteasome subunit beta type-9 (Homo sapiens, UniProt P28065).
T1 sequence (P28065 whole entry): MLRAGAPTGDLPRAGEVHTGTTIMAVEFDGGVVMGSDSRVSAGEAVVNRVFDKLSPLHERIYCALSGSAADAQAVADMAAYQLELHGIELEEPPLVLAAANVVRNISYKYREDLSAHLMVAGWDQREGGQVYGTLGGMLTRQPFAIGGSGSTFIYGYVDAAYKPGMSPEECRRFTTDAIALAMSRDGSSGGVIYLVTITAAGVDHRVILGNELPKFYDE
As to the kind of experiment: Inhibition of proteasome subunit beta-1i in human RPMI8226 cells using BODIPY-NC001 by fluorescent densitometry. The assay is classed as cell-based, RPMI-8226.

The target in assay [4] is T1, Proteasome subunit beta type-9. The experiment in a line: Inhibition of proteasome subunit beta-1i in human Raji cells using BODIPY- epoxomicin by fluorescent densitometry. The assay is classed as cell-based.
Assay [5] is described as follows: Inhibition of 20s proteasome subunit beta-5c in human Raji cells using BODIPY-NC005 by fluorescent densitometry. It is filed as cell-based.
Assay [6] can be described thus: Inhibition of 20s proteasome subunit beta-2c in human RPMI8226 cells using BODIPY-epoxomicin by fluorescent densitometry. To be noted: rpmi-8226. It is filed as cell-based.
Assay [7] is described as follows: Inhibition of 20s proteasome subunit beta-1c in human RPMI8226 cells using BODIPY-NC001 by fluorescent densitometry. The assay is classed as cell-based. To be noted: rpmi-8226.
Assay [8] addresses T2, Proteasome subunit beta type-8 (Homo sapiens, UniProt P28062).
T2 sequence (P28062 whole entry): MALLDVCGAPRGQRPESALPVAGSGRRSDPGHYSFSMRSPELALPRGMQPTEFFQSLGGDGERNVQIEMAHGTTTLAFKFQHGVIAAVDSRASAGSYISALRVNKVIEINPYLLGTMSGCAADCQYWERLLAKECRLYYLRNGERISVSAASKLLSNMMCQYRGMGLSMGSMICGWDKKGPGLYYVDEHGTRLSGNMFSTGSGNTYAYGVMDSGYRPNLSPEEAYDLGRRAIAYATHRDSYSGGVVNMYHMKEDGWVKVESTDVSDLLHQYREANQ
The experiment in a line: Inhibition of proteasome subunit beta-5i in human RPMI8226 cells using BODIPY-NC005 by fluorescent densitometry. It is filed as cell-based, RPMI-8226.

Assay [9] has as its target T2, Proteasome subunit beta type-8. The experiment in a line: Inhibition of proteasome subunit beta-5i in human Raji cells using BODIPY-NC005 by fluorescent densitometry. It is filed as cell-based.
The nature of assay [10]: Inhibition of 20s proteasome subunit beta-5c in human RPMI8226 cells using BODIPY-NC005 by fluorescent densitometry. The assay is classed as cell-based. As to conditions: rpmi-8226.
The target in assay [11] is T3, Proteasome subunit beta type-10 (Homo sapiens, UniProt P40306).
T3 sequence (P40306 whole entry): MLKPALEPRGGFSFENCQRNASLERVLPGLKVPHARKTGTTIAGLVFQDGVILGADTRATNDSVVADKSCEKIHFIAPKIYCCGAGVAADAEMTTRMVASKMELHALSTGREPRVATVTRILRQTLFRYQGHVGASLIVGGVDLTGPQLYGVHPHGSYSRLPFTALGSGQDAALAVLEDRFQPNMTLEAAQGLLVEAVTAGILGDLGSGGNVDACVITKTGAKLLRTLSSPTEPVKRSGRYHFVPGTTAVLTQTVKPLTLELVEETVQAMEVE
As to the kind of experiment: Inhibition of proteasome subunit beta-2i in human RPMI8226 cells using BODIPY-epoxomicin by fluorescent densitometry. The assay is classed as cell-based, RPMI-8226.

Assay [12] concerns the target T3, Proteasome subunit beta type-10. As to the kind of experiment: Inhibition of proteasome subunit beta-2i in human Raji cells using BODIPY- epoxomicin by fluorescent densitometry. It is filed as cell-based.
Assay [13] in a line: Inhibition of proteasome subunit beta-2c/i in human RPMI8226 cells by fluorescent densitometry. It is filed as cell-based. To be noted: rpmi-8226.
The subject of assay [14] is RPMI-8226. As to the kind of experiment: Ratio of IC50 for 20s proteasome subunit beta-1c to IC50 for proteasome subunit beta-1i in human RPMI8226 cells. The assay is classed as cell-based.
Assay [15] in a line: Inhibition of proteasome subunit beta-5c/i in human RPMI8226 cells by fluorescent densitometry. The assay is classed as cell-based. To be noted: rpmi-8226.
The subject of assay [16] is RPMI-8226. The experiment in a line: Ratio of IC50 for proteasome subunit beta-1i to IC50 for proteasome subunit beta-5c/I in human RPMI8226 cells. The assay is classed as cell-based.
For another assay, the system named is Raji. As to the kind of experiment: Ratio of IC50 for 20s proteasome subunit beta-1c to IC50 for proteasome subunit beta-1i in human Raji cells. It is filed as cell-based.

The term pIC50 denotes −log10 of the IC50, conventionally taken in molar units. Read a high pIC50 as a low IC50. `CC1=C(C(=O)N[C@H](C)C(=O)N[C@@H](Cc2c[nH]c3ccccc23)C(=O)N[C@@H](Cc2ccccc2)C(=O)[C@@]2(C)CO2)Cc2ccccc21`: the pIC50 was below 5.00 in assay [1]; below 5.00 in assay [2]; 5.46 in assay [3]; 5.74 in assay [4]; 6.64 in assay [5]; below 4.00 in assay [6]. Moreover, the pIC50 in assay [7] was below 4.00; in assay [8], 7.60; in assay [9], 8.60; in assay [10], 5.54; in assay [11], below 4.00; in assay [12], below 5.00.
Regarding `C[C@@H](NC(=O)CN1CCOCC1)C(=O)N[C@@H](Cc1c[nH]c2ccccc12)C(=O)N[C@@H](CC1CCCCC1)C(=O)[C@@]1(C)CO1`, the pIC50 is below 5.00 in assay [1]; below 5.00 in assay [2]; 5.21 in [3]; below 5.00 in [4]; 6.08 in assay [5]; below 5.00 in assay [6]. The pIC50 is below 5.00 in assay [7]; 7.23 in assay [8]; 7.49 in assay [9]; 5.54 in [10]; below 5.00 in assay [11]; below 5.00 in [12].
In the case of `CC1=C(C(=O)N[C@H](C)C(=O)N[C@@H](Cc2c[nH]c3ccccc23)C(=O)N[C@H](/C=C/S(C)(=O)=O)Cc2ccccc2)Cc2ccccc21`, the pIC50 in assay [1] is below 4.00; in assay [2] it was below 4.00; in assay [3], below 4.00; in assay [4], below 4.00; in assay [5], 4.60; in assay [6] it was below 4.00. Moreover, the negative logarithm of the IC50 (pIC50) in assay [7] is below 4.00; in [8], 6.41; in assay [9], 7.28; in assay [10] it was below 4.00; in assay [11] it was below 4.00; in assay [12] it was below 4.00.
With `CCCC[C@H](NC(=O)[C@@H]1CC(F)(F)CN1C(=O)[C@H](C)NC(=O)CN=[N+]=[N-])C(=O)N[C@@H](CC1CCCCC1)C(=O)[C@@]1(C)CO1`, the negative logarithm of the IC50 (pIC50) in [13] is below 4.00; in [2], 4.62; in [3] it was 6.89; in assay [4] it was 7.02; in assay [15], 4.19; in [7], 4.33. In [12], the pIC50 was below 4.00. Further, the Ratio IC50 with RPMI-8226 [14] amounted to 360; in the assay on RPMI-8226 [16], 500; with Raji it was 252.
As to `COc1ccc(C[C@H](NC(=O)[C@@H](C)NC(=O)C2=C(C)c3ccccc3C2)C(=O)N[C@@H](CC2CCCCC2)C(=O)[C@@]2(C)CO2)cc1`, the pIC50 was below 5.00 in [1]; below 5.00 in [2]; below 4.00 in assay [3]; below 5.00 in [4]; 5.26 in assay [5]; below 4.00 in assay [6]. The pIC50 in assay [7] was below 4.00; in [8], 6.43; in assay [9], 7.96; in [10], below 4.00; in assay [11], below 4.00; in [12], below 5.00.
Regarding `CC1=C(C(=O)N[C@H](C)C(=O)N[C@@H](Cc2c[nH]c3ccccc23)C(=O)N[C@@H](CC2CCCCC2)C(=O)[C@@]2(C)CO2)Cc2ccccc21`, the negative-log IC50 (pIC50) is below 5.00 in [1]; below 5.00 in assay [2]; 4.80 in assay [3]; 5.15 in assay [4]; 5.34 in [5]; below 4.00 in assay [6]. Moreover, the pIC50 in assay [7] is below 4.00; in assay [8] it was 6.64; in assay [9], 8.08; in assay [10], below 4.00; in assay [11] it was below 4.00; in assay [12] it was below 5.00.
Turning to `CCCC[C@H](NC(=O)[C@@H]1CCCN1C(=O)[C@H](C)NC(=O)CN=[N+]=[N-])C(=O)N[C@@H](CC(C)C)C(=O)[C@@]1(C)CO1`, the pIC50 was below 5.00 in [13]; 7.06 in [2]; 6.85 in assay [3]; 7.35 in [4]; below 5.00 in [15]; 6.43 in assay [7]. Moreover, the Ratio IC50 was 3 in the assay with RPMI-8226 [14], above 70 in the assay on RPMI-8226 [16] and 2 in the assay on Raji.
